In patent publication US8685456B2, “Topical compositions comprising nanoparticles of an isoflavone” (DSM IP Assets B.V., priority 2005, dated 2014):

How the values were obtained:
[1] = Genistein particle size by laser diffraction technique (Mastersizer 2000); format: physicochemical
[2] = “swing” test (changing temperature test, 5° C./43° C.), microscopical examination; format: physicochemical; conditions: O/W emulsions with genistein of example 7 after dry grinding in a Jet mill only (FIG. 7), 0.3%, 0.5% and 0.1% (1.0% elsewhere in the source); ten sequences 5° C./43° C., 24 hours each
Procedure: To further illustrate the benefits obtained with nanoparticles of genistein versus conventional crystalline genistein, the cosmetic formulations described above (#3 and #4) were submitted to a very challenging stability test: The formulations were stored at a temperature varying from 5° C. to 43° C. every 24 hours during 3 weeks. […] (cycles of 24 hours at each temperature).
To force the crystallization in a disperse system, a test was used in which the temperature is changed over a self-defined timeframe and in self-defined sequences. The test is called “swing” test (changing temperature test). The purpose of this test is to dissolve small particles at the higher temperature and to force re-crystallization at lower temperature. […] The following formulations were used for the “swing” test: […]
To force this crystallization the “swing” test was used and as minimum and maximum temperatures 5° C. and 43° C. were chosen. Each temperature was held over a period of 24 hours. The duration of this test was at first set to 20 days, which means that the samples run through a cooling/heating sequence (=1 sequence) 10 times.
FIGS. 5 to 7 show the results of the “swing” test. […] The following genistein samples and concentrations were employed and the emulsions were measured immediately after preparation and after subjecting the samples to ten sequences of the “swing” test: […]

[3] = Example 1, after homogenization (42 passes) and spray-drying, re-dispersed in water
[4] = Example 1, after homogenization (42 passes, 1500 bar) with starch sodium octenyl succinate, aqueous suspension
[5] = Example 1, genistein powder before homogenization
[6] = Example 2, after homogenization (40 passes, 1500 bar) in water, no carrier
[7] = Example 2, after homogenization (42 passes) and spray-drying, re-dispersed in water
[8] = Example 2, after homogenization (42 passes), starch sodium octenyl succinate added after 40th pass
[9] = Example 2, genistein powder before homogenization
[10] = Example 3, after homogenization (40 passes, 1500 bar) in water, no carrier
[11] = Example 3, after homogenization (42 passes) and spray-drying, re-dispersed in water
[12] = Example 3, after homogenization (42 passes), starch sodium octenyl succinate added after 40th pass
[13] = Example 3, genistein powder before homogenization
[14] = Example 4, after homogenization (20 passes, 700 bar) in water, no carrier
[15] = Example 4, genistein powder before homogenization
[16] = Example 5, Table XI, headed after homogenization (42 passes) and spray-drying, maltodextrin added after 40th pass, suspension before drying
[17] = Example 5, Table XII, after homogenization (42 passes) and spray-drying, maltodextrin carrier, re-dispersed in water
[18] = Example 5, after homogenization (20 passes) as headed, text: 40 times, 1500 bar, in water, no carrier
[19] = Example 5, genistein powder before homogenization
[20] = Example 6, after homogenization (11 passages) in agitated bead mill with starch sodium octenyl succinate
[21] = Example 6, genistein powder before homogenization
[22] = Example 7, Table XIV, before milling and homogenization
[23] = Example 7, Table XV, before milling and homogenization
[24] = Example 7, after milling (Jet mill) and homogenization (12 times, 700 bar) with starch sodium octenyl succinate
[25] = Example 7, after milling, homogenization and spray drying

Average particle size D[3, 2] [1, 3]: 0.14 microns
Average particle size D[4, 3] [1, 3]: 0.83 microns
D (v, 0.1) [1, 3]: 0.07 microns
D (v, 0.5) [1, 3]: 0.16 microns
D (v, 0.9) [1, 3]: 2.86 microns
Average particle size D[3, 2] [1, 4]: 0.15 microns
Average particle size D[4, 3] [1, 4]: 0.97 microns
D (v, 0.1) [1, 4]: 0.07 microns
D (v, 0.5) [1, 4]: 0.17 microns
D (v, 0.9) [1, 4]: 3.65 microns
Average particle size D[3, 2] [1, 5]: 23.1 microns
Average particle size D[4, 3] [1, 5]: 48.5 microns
D (v, 0.1) [1, 5]: 17.1 microns
D (v, 0.5) [1, 5]: 41.9 microns
D (v, 0.9) [1, 5]: 91.0 microns
Average particle size D[3, 2] [1, 6]: 0.14 microns
Average particle size D[4, 3] [1, 6]: 0.76 microns
D (v, 0.1) [1, 6]: 0.07 microns
D (v, 0.5) [1, 6]: 0.16 microns
D (v, 0.9) [1, 6]: 2.42 microns
Average particle size D[3, 2] [1, 7]: 0.14 microns
Average particle size D[4, 3] [1, 7]: 0.55 microns
D (v, 0.1) [1, 7]: 0.07 microns
D (v, 0.5) [1, 7]: 0.15 microns
D (v, 0.9) [1, 7]: 1.14 microns
Average particle size D[3, 2] [1, 8]: 0.14 microns
Average particle size D[4, 3] [1, 8]: 0.41 microns
D (v, 0.1) [1, 8]: 0.07 microns
D (v, 0.5) [1, 8]: 0.16 microns
D (v, 0.9) [1, 8]: 0.93 microns
Average particle size D[3, 2] [1, 9]: 23.1 microns
Average particle size D[4, 3] [1, 9]: 48.5 microns
D (v, 0.1) [1, 9]: 17.1 microns
D (v, 0.5) [1, 9]: 41.9 microns
D (v, 0.9) [1, 9]: 91.0 microns
Average particle size D[3, 2] [1, 10]: 0.14 microns
Average particle size D[4, 3] [1, 10]: 0.76 microns
D (v, 0.1) [1, 10]: 0.07 microns
D (v, 0.5) [1, 10]: 0.16 microns
D (v, 0.9) [1, 10]: 2.00 microns
Average particle size D[4, 3] [1, 11]: 0.43 microns
D (v, 0.1) [1, 11]: 0.07 microns
D (v, 0.5) [1, 11]: 0.16 microns
D (v, 0.9) [1, 11]: 0.97 microns
Average particle size D[3, 2] [1, 12]: 0.14 microns
Average particle size D[4, 3] [1, 12]: 0.40 microns
D (v, 0.1) [1, 12]: 0.07 microns
D (v, 0.5) [1, 12]: 0.16 microns
D (v, 0.9) [1, 12]: 0.91 microns
Average particle size D[3, 2] [1, 13]: 23.1 microns
Average particle size D[4, 3] [1, 13]: 48.5 microns
D (v, 0.1) [1, 13]: 17.1 microns
D (v, 0.5) [1, 13]: 41.9 microns
D (v, 0.9) [1, 13]: 91.0 microns
Average particle size D[3, 2] [1, 14]: 0.13 microns
Average particle size D[4, 3] [1, 14]: 0.83 microns
D (v, 0.1) [1, 14]: 0.07 microns
D (v, 0.5) [1, 14]: 0.15 microns
D (v, 0.9) [1, 14]: 2.62 microns
Average particle size D[3, 2] [1, 15]: 23.1 microns
Average particle size D[4, 3] [1, 15]: 48.5 microns
D (v, 0.1) [1, 15]: 17.1 microns
D (v, 0.5) [1, 15]: 41.9 microns
D (v, 0.9) [1, 15]: 91.0 microns
Average particle size D[3, 2] [1, 16]: 0.14 microns
Average particle size D[4, 3] [1, 16]: 0.41 microns
D (v, 0.1) [1, 16]: 0.07 microns
D (v, 0.5) [1, 16]: 0.16 microns
D (v, 0.9) [1, 16]: 0.93 microns
Average particle size D[3, 2] [1, 17]: 0.13 microns
Average particle size D[4, 3] [1, 17]: 0.41 microns
D (v, 0.1) [1, 17]: 0.07 microns
D (v, 0.5) [1, 17]: 0.15 microns
D (v, 0.9) [1, 17]: 0.93 microns
Average particle size D[2, 3] [1, 18]: 0.14 microns
Average particle size D[4, 3] [1, 18]: 0.42 microns
D (v, 0.1) [1, 18]: 0.07 microns
D (v, 0.5) [1, 18]: 0.16 microns
D (v, 0.9) [1, 18]: 0.92 microns
Average particle size D[2, 3] [1, 19]: 23.1 microns
Average particle size D[4, 3] [1, 19]: 48.5 microns
D (v, 0.1) [1, 19]: 17.8 microns
D (v, 0.5) [1, 19]: 41.4 microns
D (v, 0.9) [1, 19]: 90.2 microns
Average particle size D[4, 3] [1, 20]: 0.23 microns
D (v, 0.1) [1, 20]: 0.07 microns
D (v, 0.5) [1, 20]: 0.16 microns
D (v, 0.9) [1, 20]: 0.45 microns
Average particle size D[4, 3] [1, 21]: 48.5 microns
D (v, 0.1) [1, 21]: 17.8 microns
D (v, 0.5) [1, 21]: 41.4 microns
D (v, 0.9) [1, 21]: 90.2 microns
Average particle size D[4, 3] [1, 22]: 48.5 microns
D (v, 0.1) [1, 22]: 17.8 microns
D (v, 0.5) [1, 22]: 41.4 microns
D (v, 0.9) [1, 22]: 90.2 microns
Average particle size D[4, 3] [1, 23]: 48.5 microns
D (v, 0.1) [1, 23]: 17.8 microns
D (v, 0.5) [1, 23]: 41.4 microns
D (v, 0.9) [1, 23]: 90.2 microns
Average particle size D[4, 3] [1, 24]: 0.53 microns
D (v, 0.1) [1, 24]: 0.07 microns
D (v, 0.5) [1, 24]: 0.18 microns
D (v, 0.9) [1, 24]: 1.38 microns
Average particle size D[4, 3] [1, 25]: 0.65 microns
D (v, 0.1) [1, 25]: 0.08 microns
D (v, 0.5) [1, 25]: 0.19 microns
D (v, 0.9) [1, 25]: 1.84 microns
Average particle size D[2, 3] ([1]; after homogenization (42 passes) and spray-drying, re-dispersed in water): 0.14 microns
Change of particle size during the “swing” test [2]: significantly changed
Compound: O=c1c(-c2ccc(O)cc2)coc2cc(O)cc(O)c12 [Genistein, 4′,5,7-trihydroxyisoflavone]
